Data on 20 compounds can be found in patent US20140072662A1, “Andrographis Paniculata Compositions and Methods for Treatment of Addictions” (Omeros Corporation, priority 2012, published 2014).

“Also recorded” adds a separate entry of the source. Read-outs that look alike come from different tables or passages of the source.

For test [1], the target named is T1, GAL-4-PPAR-gamma chimera (Homo sapiens, UniProt P37231).
T1 construct: GAL-4 (fusion partner of the chimera)
The note with it: compounds isolated from EtOH extract of licorice; cited from earlier work.

Test [2] has as its target T2, PPARγ (Homo sapiens, UniProt P37231).
T2 sequence (P37231 1-505): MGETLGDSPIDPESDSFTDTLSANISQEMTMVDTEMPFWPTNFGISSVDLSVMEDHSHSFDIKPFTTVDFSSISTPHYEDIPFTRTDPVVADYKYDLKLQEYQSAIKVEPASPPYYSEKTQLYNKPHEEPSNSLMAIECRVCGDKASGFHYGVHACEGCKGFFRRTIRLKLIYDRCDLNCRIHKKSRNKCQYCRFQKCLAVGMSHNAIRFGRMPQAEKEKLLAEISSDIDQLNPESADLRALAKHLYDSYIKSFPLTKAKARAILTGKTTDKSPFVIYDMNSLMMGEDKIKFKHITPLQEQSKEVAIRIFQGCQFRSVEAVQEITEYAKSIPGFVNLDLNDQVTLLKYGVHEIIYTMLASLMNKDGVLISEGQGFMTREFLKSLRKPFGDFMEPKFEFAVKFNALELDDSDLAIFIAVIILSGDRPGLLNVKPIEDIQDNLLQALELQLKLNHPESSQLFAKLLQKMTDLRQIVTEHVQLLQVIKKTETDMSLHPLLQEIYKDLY
The note with it: cited from earlier work.

For test [3], the system named is msP rats. As to the kind of experiment: Central PPAR antagonist GW9662 on andrographolide-induced reduction of alcohol intake in msP rats. Format: in vivo, rat. The procedure: GW9662, purchased from Tocris (Bristol, UK), was dissolved in 10% DMSO and 3% Tween 80 and the final volume (5 μg/μl) was adjusted adding distilled water. GW9662 was injected ICV in a volume of 1 μl per rat by means of a stainless-steel injector 2.5 mm longer than the guide cannula, so that its tip protruded into the ventricle.
A 22-gauge guide cannula for intracerebroventricular (ICV) drug injections was stereotaxically implanted into the lateral cerebroventricle with the following coordinates: anteroposterior (AP)=1.0; lateral (L)=1.8; ventral (V)=2.0 with reference to bregma.
A widely used method for testing fluid preference is the two-bottle choice paradigm, in which water and 10% (v/v) alcohol solution were offered in graduated drinking tubes equipped with metallic drinking spouts and their consumption was measured by reading the volume consumed from the graduated tubes. Food intake was measured by weighing the food containers and taking into account spillage. Alcohol, water and food intakes are expressed as g/kg to reduce the influence of differences in body weight.
To examine whether the effect of andrographolide on alcohol intake is mediated by brain PPAR receptors, another group of msP rats (N=31) was treated ICV with 5 μg/rat of the PPAR antagonist GW9662 and then injected with andrographolide (10 mg/kg) or its vehicle. In a between-subject design each group of animals (N=7-8/group) received a different drug dose for 6 consecutive days. GW9662 or its vehicle were administered twice daily at 12 hours and 30 minutes before the beginning of the dark period of the light-dark cycle. Andrographolide was given immediately after GW9662 administrations.
Alcohol, water, and food intake was recorded at 0.5, 2, 8 and 24 hours from the moment that alcohol was made available.

Test [4] has as its target T3, PPAR α (Mus musculus, UniProt P23204).
T3 construct: host or cells: 3T3-L1
T3 sequence (P23204 1-468): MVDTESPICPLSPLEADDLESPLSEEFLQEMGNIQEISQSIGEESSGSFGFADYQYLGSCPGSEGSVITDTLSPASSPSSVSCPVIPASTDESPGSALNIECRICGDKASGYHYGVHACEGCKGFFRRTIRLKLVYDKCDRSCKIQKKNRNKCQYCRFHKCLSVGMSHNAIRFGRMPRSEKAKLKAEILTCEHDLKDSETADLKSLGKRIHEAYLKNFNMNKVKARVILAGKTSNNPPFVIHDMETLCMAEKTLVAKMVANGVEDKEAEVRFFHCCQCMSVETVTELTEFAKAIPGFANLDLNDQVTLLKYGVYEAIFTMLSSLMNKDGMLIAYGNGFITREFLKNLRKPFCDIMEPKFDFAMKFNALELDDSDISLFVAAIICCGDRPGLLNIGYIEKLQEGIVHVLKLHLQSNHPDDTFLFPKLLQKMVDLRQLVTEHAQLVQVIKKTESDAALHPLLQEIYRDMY
The conditions noted are these: 3T3-L1 cells; cited from earlier work.

The target in test [5] is T4, PPARγ (Mus musculus, UniProt P37238).
T4 construct: host or cells: 3T3-L1
T4 sequence (P37238 1-505): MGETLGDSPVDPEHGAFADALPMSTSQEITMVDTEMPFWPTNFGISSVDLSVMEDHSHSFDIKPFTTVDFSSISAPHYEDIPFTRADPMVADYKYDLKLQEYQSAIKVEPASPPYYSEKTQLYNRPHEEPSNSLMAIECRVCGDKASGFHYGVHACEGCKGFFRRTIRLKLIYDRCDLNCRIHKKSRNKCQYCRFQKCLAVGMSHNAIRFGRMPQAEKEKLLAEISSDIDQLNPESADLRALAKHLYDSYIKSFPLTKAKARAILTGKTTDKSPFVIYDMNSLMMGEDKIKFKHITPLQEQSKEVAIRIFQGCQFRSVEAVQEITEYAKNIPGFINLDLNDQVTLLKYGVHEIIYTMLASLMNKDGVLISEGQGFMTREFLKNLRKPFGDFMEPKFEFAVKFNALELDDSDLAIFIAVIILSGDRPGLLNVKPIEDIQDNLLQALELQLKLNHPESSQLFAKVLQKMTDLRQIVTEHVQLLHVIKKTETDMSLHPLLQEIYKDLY
The conditions noted are these: 3T3-L1 cells; cited from earlier work.

Test [6] concerns the target PPAR γ ligand binding domain (Homo sapiens, UniProt P37231). The conditions noted are these: cited from earlier work.
In test [7] the target is T5, PPAR δ ligand binding domain (Homo sapiens, UniProt Q03181).
T5 sequence (Q03181 211-439 limits assumed): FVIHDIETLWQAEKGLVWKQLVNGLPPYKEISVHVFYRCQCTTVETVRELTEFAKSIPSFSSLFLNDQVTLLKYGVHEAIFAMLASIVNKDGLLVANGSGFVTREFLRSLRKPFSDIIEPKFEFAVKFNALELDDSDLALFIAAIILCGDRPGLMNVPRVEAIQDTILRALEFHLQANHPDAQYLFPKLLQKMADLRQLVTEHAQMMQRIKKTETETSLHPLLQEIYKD
The note with it: cited from earlier work.

The target of test [8] is T4, PPARγ. The note with it: 3T3-L1 preadipocytes; cited from earlier work.
Test [9] has as its target T2, PPARγ. The note with it: cited from earlier work. This is another data set of the same source.

T1 sequence (P37231 with tags, fused parts or gaps limits assumed): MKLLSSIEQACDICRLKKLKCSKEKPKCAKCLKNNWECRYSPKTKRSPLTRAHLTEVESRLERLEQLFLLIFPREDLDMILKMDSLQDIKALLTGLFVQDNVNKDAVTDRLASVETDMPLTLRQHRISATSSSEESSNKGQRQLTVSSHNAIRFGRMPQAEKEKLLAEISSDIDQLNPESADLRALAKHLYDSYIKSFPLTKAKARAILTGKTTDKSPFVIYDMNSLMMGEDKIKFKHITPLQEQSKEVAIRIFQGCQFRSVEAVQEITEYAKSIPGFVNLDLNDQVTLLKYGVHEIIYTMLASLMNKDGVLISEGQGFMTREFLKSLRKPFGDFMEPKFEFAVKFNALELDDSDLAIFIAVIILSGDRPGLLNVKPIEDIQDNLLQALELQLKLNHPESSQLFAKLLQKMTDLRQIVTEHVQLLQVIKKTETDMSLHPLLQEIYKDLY

`CC1(C)C=Cc2c(ccc3c2OC[C@@H](c2cc(C=O)c(O)cc2O)C3)O1` [5′-formylglabridin]: the PPAR-gamma ligand-binding activity result in test [1] is on record as “significant PPAR-gamma ligand-binding activity”.
Take `CC(C)=CCc1cc([C@H]2Oc3cc(O)ccc3C[C@H]2O)ccc1O` [(2R,3R)-3,4′,7-trihydroxy-3′-prenylflavane]: in test [1], the PPAR-gamma ligand-binding activity entry was “significant PPAR-gamma ligand-binding activity”.
On to `COc1ccc([C@@H]2COc3cc(O)ccc3C2)c(O)c1O` [(3R)-2′,3′,7-trihydroxy-4′-methoxyisoflavan], for which the PPAR-gamma ligand-binding activity result in test [1] is reported as “significant PPAR-gamma ligand-binding activity”.
For the compound `CC(C)=CCCC(C)CCO` (stereo not drawn) [Citronellol, citronellol], the “activation of PPARγ” value in [2] is “activate PPARγ”.
In the case of `O=C(Nc1ccccc1)c1cc([N+](=O)[O-])ccc1Cl` [GW9662], in test [3] (GW9662 5 μg/rat ICV alone, twice daily, 6 days, p>0.05), the alcohol drinking result is “no similar effect”. Moreover, the “blockade of the andrographolide effect on alcohol drinking” value in [3] (GW9662 5 μg/rat ICV given before andrographolide 10 mg/kg) is “blocked the effect of andrographolide at 8 and 24 hours starting from the third day of treatment; also recorded: completely prevents the andrographolide effect on alcohol drinking”.
As for `CCCC\C=C/C=C/C=C\CCCCCCCC(=O)O` [PUA, punicic acid], the “PPAR α reporter activity” value in test [4] is reported as “dose-dependent increase”. In addition, in test [5], the “PPAR γ reporter activity” value is listed as “dose-dependent increase”. For the same compound, the “binding to PPAR γ ligand binding domain” value in test [6] is listed as “bind”. Moreover, in test [7], the “binding to PPAR δ ligand binding domain” value was “bind”.
For the compound `CC1=CC(=O)CC(C)(C)[C@@]1(O)/C=C/C(C)=C\C(=O)O` [abscisic acid], in test [8], the “activity of PPARγ” value is given as “increase the activity of PPARγ”.
On to `COc1ccc(-c2coc3cc(O)cc(O)c3c2=O)cc1` [biochanin A], for which the “activation of PPARγ” value in test [9] is “potent activators of PPARγ”.
Take `COc1cc(O)ccc1/C=C/C(=O)c1ccc(O)cc1` [echinatin]: in test [1], the PPAR-gamma ligand-binding activity entry is on record as “significant PPAR-gamma ligand-binding activity”.
Turning to `CC(C)=CCc1c(O)cc(O)c2c(=O)c(-c3ccc(O)c(O)c3)coc12` [gancaonin L], the PPAR-gamma ligand-binding activity entry in test [1] is “significant PPAR-gamma ligand-binding activity”.
Consider `O=c1c(-c2ccc(O)cc2)coc2cc(O)cc(O)c12` [genistein], for which the “activation of PPARγ” value in test [9] is “potent activators of PPARγ”.
As for `CC(C)=CCC/C(C)=C/CO` [geraniol], the “activation of PPARγ” value in [2] is reported as “activate PPARγ”.
As to `CC(C)=CCc1cc([C@@H]2CC(=O)c3ccc(O)c(CC=C(C)C)c3O2)ccc1O` [glabrol], in [1], the PPAR-gamma ligand-binding activity result is “significant PPAR-gamma ligand-binding activity”.
With `CC1(C)C=Cc2c(ccc(-c3coc4cc(O)ccc4c3=O)c2O)O1` [glabrone], the PPAR-gamma ligand-binding activity entry in [1] is reported as “significant PPAR-gamma ligand-binding activity”.
In the case of `CC1(C)C=Cc2c(ccc3cc(-c4ccc(O)cc4O)c(=O)oc23)O1` [kanzonol W], in test [1], the PPAR-gamma ligand-binding activity entry was “significant PPAR-gamma ligand-binding activity”.
Turning to `CC(C)=CCc1c(O)ccc([C@@H]2COc3c(ccc(O)c3CC=C(C)C)C2)c1O` [kanzonol X], the PPAR-gamma ligand-binding activity entry in test [1] is listed as “significant PPAR-gamma ligand-binding activity”.
As to `CC(C)=CCC/C(C)=C\CO` [nerol], the “activation of PPARγ” value in test [2] is “not”.
As to `CC(C)=CCc1cc([C@@H]2CC(=O)c3ccc4c(c3O2)C=CC(C)(C)O4)ccc1O` [shinflavanone], the PPAR-gamma ligand-binding activity result in test [1] is listed as “significant PPAR-gamma ligand-binding activity”.
Consider `CC1(C)C=Cc2c(ccc3c2OC[C@H]2c4ccc(O)cc4O[C@@H]32)O1` [shinpterocarpin], for which, in test [1], the PPAR-gamma ligand-binding activity result is on record as “significant PPAR-gamma ligand-binding activity”.
As to licoflavanone A, the PPAR-gamma ligand-binding activity result in test [1] is “significant PPAR-gamma ligand-binding activity”.
